Test results published in PubChem BioAssay (NCI).
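How tested: cells in 96-well plates exposed to compound for 48 hours at five concentrations. The concentration for 50% growth inhibition is given as GI50. TGI: concentration producing complete growth inhibition.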

Tests used:
Assay in all cases: NCI tumour cell line growth inhibition, 48 h
786-0 renal = tested on: 786-0 renal
A498 renal = tested on: A498 renal
HCC-2998 colon = tested on: HCC-2998 colon
HOP-92 NSCLC = tested on: HOP-92 NSCLC
NCI-H226 lung = tested on: NCI-H226 lung
SNB-75 CNS = tested on: SNB-75 CNS
SW-620 colon = tested on: SW-620 colon
HT29 colon = tested on: HT29 colon
NCI-H522 lung = tested on: NCI-H522 lung
SK-OV-3 ovarian = tested on: SK-OV-3 ovarian

Structure (SMILES)	GI50 (786-0 renal) [µM]	TGI (786-0 renal) [µM]	GI50 (A498 renal) [µM]	TGI (A498 renal) [µM]	GI50 (HCC-2998 colon) [µM]	TGI (HCC-2998 colon) [µM]	GI50 (HOP-92 NSCLC) [µM]	TGI (HOP-92 NSCLC) [µM]	GI50 (NCI-H226 lung) [µM]	TGI (NCI-H226 lung) [µM]	GI50 (SNB-75 CNS) [µM]	TGI (SNB-75 CNS) [µM]	GI50 (SW-620 colon) [µM]	TGI (SW-620 colon) [µM]	TGI (HT29 colon) [µM]	TGI (NCI-H522 lung) [µM]	TGI (SK-OV-3 ovarian) [µM]	GI50 (HT29 colon) [µM]	GI50 (NCI-H522 lung) [µM]	GI50 (SK-OV-3 ovarian) [µM]
COc1ccc(-c2csc(NC(=O)N3CCN(c4cc5c(cc4F)c(=O)c(C(=O)O)cn5C4CC4)CC3)n2)cc1	1.46	19.6	2.59	15.6	3.83	> 100	1.6	6.56	2.95	> 100	2.47	17.4	5.04	> 100	–	–	–	–	–	–
COc1ccc(C(=O)C(Br)C(Br)C(=O)O)cc1 (stereo not drawn)	–	97.6	–	> 100	–	–	–	> 100	–	> 100	–	> 100	–	52.3	31	34.9	> 100	–	–	–
S=P(c1ccccc1)(c1ccccc1)C1(C2(P(=S)(c3ccccc3)c3ccccc3)CC2)CC1	–	> 100	–	–	–	> 100	–	–	–	> 100	–	> 100	–	> 100	> 100	> 100	–	–	–	–
O=C(O)CCSC(=O)Nc1cccc([N+](=O)[O-])c1	–	> 100	–	> 100	–	> 100	–	–	–	–	–	> 100	–	> 100	> 100	–	–	–	–	–
O=C(COc1ccc(Cl)cc1)N1N=C(c2ccc([N+](=O)[O-])o2)CC1(O)c1ccccc1 (stereo not drawn)	–	20.7	–	–	–	16.1	–	37.7	–	55.6	–	–	–	21.5	16.3	38.6	47.3	–	–	–
Cc1[nH]c2ccccc2c1C1CC(=O)NC1=O (stereo not drawn)	–	> 100	–	> 100	–	> 100	–	–	–	> 100	–	> 100	–	> 100	–	–	> 100	–	–	–
C/C(=N\NS(=O)(=O)c1ccc(C)cc1)c1c(O)cc(C)oc1=O	–	> 100	–	> 100	–	> 100	–	> 100	–	> 100	–	> 100	–	> 100	> 100	–	> 100	–	–	–
O=C(O)CN(c1ccccc1)S(=O)(=O)c1ccc(Cl)cc1	–	> 100	–	> 100	–	–	–	> 100	–	–	–	> 100	–	> 100	> 100	> 100	> 100	–	–	–
O=C1C(Cl)=C(Nc2cccc(O)c2)C(=O)N1c1cccc(Cl)c1	57.8	> 100	–	–	–	–	–	–	26	76.9	–	–	39	> 100	> 100	36.3	> 100	37.3	16.6	56.5
COc1cc2ccc(/C(C)=N/OC(C)=O)cc2cc1OC	–	> 100	–	76.9	–	–	–	> 100	–	> 100	–	40.9	–	> 100	> 100	> 100	> 100	–	–	–
N#CC(C(=O)CCC(=O)Nc1ccc(Cl)cc1)c1ccccc1Cl (stereo not drawn)	–	> 100	–	> 100	–	–	–	> 100	–	> 100	–	> 100	–	> 100	–	> 100	> 100	–	–	–
COc1cc2c(=O)n(CCCn3ccnc3)c3c4cc5c(cc4ccc3c2cc1OC)OCO5	1.93	> 100	–	–	13.4	> 100	0.831	28.9	0.246	> 100	0.298	9.45	0.49	> 100	> 100	17.1	11.3	0.492	0.324	0.443
COc1cc2ccnc3c2c(c1OC)CC1CC(O)C(OC)CC31 (stereo not drawn)	–	> 100	–	–	–	> 100	–	81.2	–	> 100	–	> 100	–	> 100	> 100	> 100	> 100	–	–	–
C[C@]12CC(C#N)C(=O)C(O)=C1CC[C@@H]1C2CC[C@@]2(C)C1CC[C@@H]2O (stereo partly drawn)	–	> 100	–	28.9	–	> 100	–	76.4	–	> 100	–	63.1	–	> 100	> 100	–	> 100	–	–	–
CC1=C(/C=C/C2=CC(=C\C(=O)O)/CC(C3=C(C)CCCC3(C)C)C2)C(C)(C)CCC1 (stereo not drawn)	–	28.4	–	28.7	–	–	–	23.7	–	23.9	–	28.8	–	29.1	28.6	22.7	27.7	–	–	–
CC1Cc2c(N)nc(N3CCOCC3)nc2NC1=O (stereo not drawn)	–	> 100	–	–	–	–	–	–	–	> 100	–	> 100	–	> 100	> 100	> 100	> 100	–	–	–
CCCC1C(=O)C(CC)Cc2c(OC)ccc(OC)c21 (stereo not drawn)	–	> 100	–	–	–	> 100	–	> 100	–	> 100	–	> 100	–	> 100	> 100	> 100	> 100	–	–	–
